Legend:
[1] = Stability of butyrate derivatives in PN compositions (sterilization, storage; GC-FID); assay type: physicochemical; details: for free butyric acid released in the lipid chamber during sterilization: after compounding and sterilization of the bags
Protocol: The concentration of arginine butyrate can be varied relatively broadly over the disclosed range.
Compositions used are described in Table 4 and Table 5. After compounding of the respective butyrate derivatives into the respective chambers of the bags and following sterilization, free butyric acid was measured in the lipid chamber (for tributyrin and DPBG compositions) and the butyrate content in the amino acid chamber was determined. […] In case of the amino acid chamber, the recovery of butyrate after sterilization corresponds to what was introduced. Accordingly, no deterioration of the salt occurred during or after sterilization. In addition, the stability of the composition over time (12 months, 25° C., 40% RH) was confirmed. The free butyric acid can be quantified by GC-FID, after sample preparation by liquid-liquid extraction of the lipid emulsion or directly from amino acid solution. These methods are known in the art.

[2] = test system: cytokines Il-1β, Il-6, TNF-α, Il-8, Il-10; experiment: Cytokine quantification in jejunal and ileal samples; assay type: in vivo, pig; details: compared to standard PN (s-PN)
Protocol: Digestive Diseases and Sciences 2002; 47:2049-2055. Jejunal and ileal samples were homogenized in double-distilled water, and the Bradford protein assay (Biorad, Hercules, Calif., USA) was performed on homogenate and plasma samples. Protein (30 μg) from each sample was denatured by boiling, and proteins were separated by size using 12.5% sodium dodecyl sulfate polyacrylamide gel electrophoresis. Separated proteins were transferred to polyvinylidene difluoride membranes (Biorad) using a semidry transfer apparatus (Biorad). Western blot analysis for TNF-alpha, IL-1beta, Il-10 and IL-6 was performed using porcine-specific polyclonal antibodies (Endogen, Woburn, Mass., USA). A mouse anti-pig monoclonal TNF-alpha antibody was used to detect TNF-alpha ([…]) Rabbit anti-pig polyclonal antibodies specific for IL-1beta and IL-6 were used to detect IL-1beta ([…]), Il-10 ([…]) and IL-6 ([…]). Membranes were developed using the Opti-4CN kit (Biorad) and photographed using the FOTO/Analyst Image Analysis System (Fotodyne, Inc., Hart-land, Wisconsin, USA). Densitometry of TNF-alpha, IL-1beta, IL-6, and Il-10 was performed using Collage Image Analysis Software 4.0 (Fotodyne, Inc.). Results are shown in FIG. 15 (Il-6), FIG. 16 (Ill-beta), FIG. 17 (TNF-alpha) and FIG. 18 (Il-10).

[3] = test system: sIgA; experiment: IgA quantification (sandwich ELISA of intestinal washings); assay type: in vivo, pig; details: 10 mmol/L; compared to standard PN (s-PN)
Protocol: Small intestine probes for IgA level determination were obtained by flushing the small intestine with chilled HBSS (Hank's Balanced Salt Solution). Nasal and bronchoalveolar washings for measurement of respiratory tract IgA levels were obtained by lavage with 1 mL phosphate-buffered saline solution under anesthesia. The washings were stored in a −80° C. freezer until IgA analysis. IgA was measured in small intestinal and respiratory tract washings by sandwich enzyme-linked immunosorbent assay using a polyclonal goat anti-mouse IgA (Sigma) to coat the plate, a purified mouse IgA (Zymed Laboratories, San Francisco, Calif.) as the standard, and a horseradish peroxidase-conjugated goat anti-mouse IgA (Sigma) Results are shown in FIG. 13.

[4] = test system: metastatic colorectal cancer patients; details: aqueous solution, pH 7.7; phase I clinical trial; cited from earlier work

| Molecule | free butyric acid released in the lipid chamber during sterilization [1] | Ileal Cytokine Concentration (less pro-inflammatory cytokines Il-1β, Il-6, TNF-α) ([2]; 10 mmol/L) | Ileal Cytokine Concentration (more anti-inflammatory cytokines Il-8, Il-10) ([2]; 10 mmol/L) | Jejunal Cytokine Concentration (less pro-inflammatory cytokines Il-1β, Il-6, TNF-α) ([2]; 10 mmol/L) | Ileal Cytokine Concentration (less pro-inflammatory cytokines Il-1β, Il-6, TNF-α) ([2]; 30 mmol/L) | Jejunal Cytokine Concentration (less pro-inflammatory cytokines Il-1β, Il-6, TNF-α) ([2]; 30 mmol/L) | Jejunal Cytokine Concentration (more anti-inflammatory cytokines Il-8, Il-10) ([2]; 30 mmol/L) | Jejunal sIgA Concentration [3] | Jejunal Cytokine Concentration (more anti-inflammatory cytokines Il-8, Il-10) ([2]; 10 mmol/L) | tolerated dose [4] [g/kg/day] | shelf-life over which stable in the amino acid formulation ([1]; 25° C. and 40% relative humidity (RH), also stable during production, sterilization) |
| --- | --- | --- | --- | --- | --- | --- | --- | --- | --- | --- | --- |
| CCCCCCCCCCCCCCCC(=O)OCC(COC(=O)CCC)OC(=O)CCCCCCCCCCCCCCC (stereo not drawn) [DPBG, 1,2-Dipalmitoyl 3-butyryl glycerol] | only very limited amounts | – | – | – | – | – | – | – | – | – | – |
| CCCC(=O)OCC(COC(=O)CCC)OC(=O)CCC [Tributyrin] | only very limited amounts | ++ (++ indicates P < 0.05) | + | +++ (+++ indicate P < 0.01) | ++ (++ indicates P < 0.05) | +++ (+++ indicate P < 0.01) | + | – | – | – | – |
| L-arginine, butanoate (3:4) [Arginine Butyrate] | – | +++ (+++ indicate P < 0.01) | +^4 | +++ (+++ indicate P < 0.01) | – | – | – | +++^3 (+++ indicate P < 0.01) | ++ (++ indicates P < 0.05) | 3 | at least 12 months |
